Reference: patent US10940139B2, “Compounds that interact with the Ras superfamily for the treatment of cancers, inflammatory diseases, rasopathies, and fibrotic disease” (Shy Therapeutics LLC, priority 2017, dated 2021)

Columns and labels:
KRas G12D mutant protein = KRas G12D mutant protein (Homo sapiens (Human), UniProt P01116, G12D); test: Ras GTP binding domain inhibition assay (labeled GTP); conditions: at 20 μM; read-out: KRas G12D % Inh.
Rho-A = Rho-A (Homo sapiens (Human), UniProt P61586); test: Rho inhibition assay (labeled GTP); assay type: binding; conditions: read-out: Rho-A % Inh.
Rho-A, sequence (P61586 whole entry): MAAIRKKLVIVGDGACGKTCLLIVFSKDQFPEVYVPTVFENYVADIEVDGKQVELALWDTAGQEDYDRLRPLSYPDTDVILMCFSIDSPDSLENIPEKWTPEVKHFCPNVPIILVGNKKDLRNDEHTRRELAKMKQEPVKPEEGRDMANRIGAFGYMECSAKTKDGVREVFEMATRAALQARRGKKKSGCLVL

Rac-1 = Rac-1 (Homo sapiens (Human), UniProt P63000); test: Rac inhibition assay (labeled GTP); assay type: binding; conditions: read-out: Rac-1 % Inh.
[1] = biological target: KRas G12D/Q61H double mutant (Homo sapiens (Human), UniProt P01116, G12D/Q61H); test: Ras GTP binding domain inhibition assay (labeled GTP); conditions: at 20 μM; read-out: KRas G12D Q61H % Inh.
KRas G12D/Q61H double mutant, sequence (P01116-2 other isoform, or with tags, fused parts or gaps G12D/Q61H): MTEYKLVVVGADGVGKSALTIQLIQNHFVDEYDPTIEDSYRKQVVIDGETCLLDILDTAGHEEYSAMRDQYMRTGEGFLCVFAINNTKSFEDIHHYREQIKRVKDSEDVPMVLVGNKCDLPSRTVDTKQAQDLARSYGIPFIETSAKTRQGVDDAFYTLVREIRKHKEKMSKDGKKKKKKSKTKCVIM
Procedure, shortened: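 Inhibition of labeled GTP binding is measured on immobilized His-KRas protein in Tris buffer pH 7.5 with 1 mM MgCl2 and 1 mM DTT.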

KRas G12D mutant protein, sequence (P01116-2 other isoform, or with tags, fused parts or gaps G12D): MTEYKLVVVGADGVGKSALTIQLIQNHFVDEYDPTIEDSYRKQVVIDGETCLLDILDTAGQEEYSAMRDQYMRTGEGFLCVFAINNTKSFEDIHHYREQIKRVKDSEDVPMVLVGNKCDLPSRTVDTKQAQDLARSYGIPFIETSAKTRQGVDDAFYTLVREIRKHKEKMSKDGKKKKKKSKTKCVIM

Row | SMILES | inhibition at 20 µM (KRas G12D mutant protein) | inhibition at 20 µM (Rho-A) | inhibition at 20 µM (Rac-1) | inhibition at 20 µM [1]
1 | Cc1cnc(-c2ccccn2)nc1NC(=O)C1CCCc2cc(C#N)ccc21 (centres unmarked) [drawing 3699] | 25 to 50% | 76 to 100% | 76 to 100% | 51 to 75%
2 | COc1cccc(CN2CCN(C(=O)c3csc4c(O)nc(-c5ccccn5)nc34)CC2)c1 [drawing 3652] | 76 to 100% | 76 to 100% | 76 to 100% | 25 to 50%
3 | Cc1cnc(-c2ccccn2)nc1NC(=O)Cc1ccc2cnccc2c1 [drawing 3728] | 51 to 75% | 76 to 100% | 76 to 100% | 51 to 75%
4 | COCC(C)Nc1nc(-c2ccccn2)nc2sc(-c3ccncc3)c(-c3ccccc3)c12 (centres unmarked) [drawing 3859] | 25 to 50% | 51 to 75% | 51 to 75% | 51 to 75%
5 | Oc1nc(-c2ccccn2)nc2sc3c(c12)CCCNC3 [drawing 3724] | 51 to 75% | 51 to 75% | 76 to 100% | 25 to 50%
6 | Cc1cc2nc(-c3ccccn3)nc(N)c2s1 [drawing 3708] | 51 to 75% | 76 to 100% | 76 to 100% | 51 to 75%
7 | Oc1nc(-c2ccccn2)nc2c1c(-c1ccccc1)nn2-c1ccccn1 [drawing 3857] | 51 to 75% | 51 to 75% | 51 to 75% | 51 to 75%
8 | COc1ccnc(-c2nc(O)c3c(Cl)csc3n2)c1 [drawing 3689] | 51 to 75% | 76 to 100% | 76 to 100% | 51 to 75%
9 | COc1ccc(F)cc1-c1csc2c(O)nc(-c3ccccn3)nc12 [drawing 3746] | 51 to 75% | 51 to 75% | 51 to 75% | 51 to 75%
10 | Oc1nc(-c2ccccn2)nc(Oc2cccc(C(F)(F)F)c2)c1O [drawing 3876] | 51 to 75% | 51 to 75% | 51 to 75% | 51 to 75%
11 | Oc1nc(-c2ccccn2)nc2sc3c(c12)CCNC3 [drawing 3723] | 76 to 100% | 76 to 100% | 76 to 100% | 51 to 75%
12 | COCCNc1nc(-c2ccccn2)nc2c1c(-c1ccccc1)nn2-c1ccccn1 [drawing 3856] | 51 to 75% | 76 to 100% | 76 to 100% | 51 to 75%
13 | N#Cc1ccc(COCC(=O)Nc2nc(-c3ccccn3)nc3sccc23)cc1 [drawing 3688] | 76 to 100% | 76 to 100% | 76 to 100% | 25 to 50%
14 | O=S1(=O)CCN(Cc2cccc(-c3csc4c(O)nc(-c5ccccn5)nc34)c2)CC1 [drawing 3736] | 51 to 75% | 76 to 100% | 76 to 100% | 51 to 75%
15 | CC(C)c1csc2c(O)nc(-c3ccccn3)nc12 [drawing 3806] | 51 to 75% | 51 to 75% | 51 to 75% | 51 to 75%
16 | Oc1nc(-c2ccccn2)nc2c(-c3ccccc3Cl)csc12 [drawing 3626] | 25 to 50% | 76 to 100% | 76 to 100% | 51 to 75%
17 | COc1cnc(-c2cn(C)cn2)nc1O [drawing 3815] | 51 to 75% | 76 to 100% | 76 to 100% | 51 to 75%
18 | COc1cccc(C2CN(C(=O)c3csc4c(O)nc(-c5ccccn5)nc34)CCN2)c1 (centres unmarked) [drawing 3662] | 51 to 75% | 76 to 100% | 76 to 100% | 25 to 50%
19 | Oc1nc(-c2ccccn2)nc2c(C3CCCC3)csc12 [drawing 3814] | 51 to 75% | 76 to 100% | 76 to 100% | 51 to 75%
20 | O=C(COCc1ccnc(O)c1)Nc1nc(-c2ccccn2)nc2sccc12 [drawing 3729] | 25 to 50% | 51 to 75% | 51 to 75% | 51 to 75%
21 | Cc1sc2c(O)nc(-c3ccccn3)nc2c1-c1ccccc1 [drawing 3777] | 51 to 75% | 51 to 75% | 51 to 75% | 51 to 75%
22 | COc1nc(-c2ccccn2)nc2c(C3CCCC3)csc12 [drawing 3789] | 25 to 50% | 51 to 75% | 76 to 100% | 51 to 75%
23 | CN1CCN(c2nc(-c3ccccn3)nc3scc(C(=O)NCCc4cnc(O)nc4)c23)CC1 [drawing 3771] | 51 to 75% | 51 to 75% | 51 to 75% | 25 to 50%
24 | CN(C)Cc1ccc(F)c(-c2csc3c(O)nc(-c4ccccn4)nc23)c1 [drawing 3773] | 51 to 75% | 76 to 100% | 51 to 75% | 25 to 50%

The remaining lines, values ahead:

Row | inhibition at 20 µM (KRas G12D mutant protein) | inhibition at 20 µM (Rho-A) | inhibition at 20 µM (Rac-1) | inhibition at 20 µM [1] | SMILES
25 | 76 to 100% | 76 to 100% | 51 to 75% | 51 to 75% | COc1c(O)nc(-c2ccccn2)nc1Oc1cccc(C(F)(F)F)c1 [drawing 3875]
26 | 51 to 75% | 76 to 100% | 76 to 100% | 51 to 75% | CC(C)Cc1csc2c(O)nc(-c3ccccn3)nc12 [drawing 3813]
27 | 51 to 75% | 76 to 100% | 76 to 100% | 51 to 75% | COc1ccc(-c2csc3c(O)nc(-c4ccccn4)nc23)c(C)c1 [drawing 3753]
28 | 51 to 75% | 51 to 75% | 25 to 50% | 51 to 75% | Oc1nc(-c2ccccn2)nc2cc(-c3ccccc3)sc12 [drawing 3880]
29 | 51 to 75% | 51 to 75% | 51 to 75% | 51 to 75% | Oc1nc(-c2ccccn2)nc2c(-c3ccc(F)cc3F)csc12 [drawing 3743]
30 | 51 to 75% | 76 to 100% | 76 to 100% | 51 to 75% | O=C(O)c1cc2nc(-c3ccccn3)nc(O)c2s1 [drawing 3722]
31 | 51 to 75% | 25 to 50% | 51 to 75% | 25 to 50% | Cc1sc2c(O)nc(-c3ccccn3)nc2c1-c1cccnc1 [drawing 3786]
32 | 25 to 50% | 51 to 75% | 51 to 75% | 51 to 75% | Oc1nc(-c2ccccn2)nc2c(-c3cccc4c3OCO4)csc12 [drawing 3721]
33 | 51 to 75% | 51 to 75% | 76 to 100% | 25 to 50% | COc1ccccc1-c1csc2c(O)nc(-c3ccccn3)nc12 [drawing 3742]
34 | 51 to 75% | 51 to 75% | 51 to 75% | 51 to 75% | Cc1sc2c(O)nc(-c3ccccn3)nc2c1C(=O)N1CCN(c2ccccc2)CC1C (centres unmarked) [drawing 3828]
35 | 51 to 75% | 76 to 100% | 76 to 100% | 51 to 75% | Oc1nc(-c2ccccn2)nc2scc(Br)c12 [drawing 3623]
